# Reference: patent US10379016B1, “Apparatus for inoculating agar plate” (priority 2018, dated 2019)
# System: S. aureus strain ATCC 29213
# Experiment: Antimicrobial susceptibility test by disc diffusion method (zone of inhibition)
# Type: cell-based
# Conditions: microbial concentration 1 × 10^8 CFU/ml, 35-37° C., 18-20 h, NZI = No zone of inhibition; for Testing for zone of inhibition; Method of Inoculation: Swabbing: Mueller-Hinton agar plate inoculated by cotton swab; for Testing for zone of inhibition; Method of Inoculation: Apparatus, Double actuation / Testing for zone of inhibition; Method of Inoculation: Apparatus, Single actuation: Mueller-Hinton agar plate spray-inoculated with apparatus
# Protocol: In an experiment, Mueller-Hinton Agar plates were prepared. Forty grams of Mueller-Hinton Agar (MHA) was suspended in 1 liter distilled water and then boiled to dissolve the powder completely. The medium was sterilized by autoclaving at 121° C. for 15 min. After autoclaving, the medium was cooled to 45° C. and poured 25 mL molten agar into sterile 90 mm diameter Petri dishes (petri plates) to give a depth of about 4 mm. The surface of the agar was dried to remove excess moisture before use.
# The suspension density was measured by using an UV spectrophotometer. The density of the suspension was adjusted to McFarland 0.5 by addition of saline or more organisms. The number of colony forming units (CFU/ml) in the culture samples plays an important role in the incubation of the agar plates. For colony isolation, diluted microbial suspension (about 1-2×10^3 CFU/ml) can be sprayed over agar plate.
# For comparison, some agar plates were inoculated by cotton swab. A sterile cotton swab was dipped into the bacterial suspension (1-2×10^8 CFU/ml) and the excess fluid removed by turning the swab against the inside of the tube to avoid over-inoculation of plates. The inoculum was spread evenly over the entire surface of the agar plate by swabbing in three directions.
# Other agar plates were inoculated by using the present apparatus. The agar plates were inoculated with inoculum of bacterial suspension (1-2×10^8 CFU/ml). The bacterial suspension was filled in the reservoir of the present apparatus and then sprayed uniformly using the atomizer over an agar plate held inside the spray chamber using the atomizer.
# Antimicrobial susceptibility tests of the S. aureus strain ATCC 29213 was determined by the disc diffusion method according to the recommendations and guidelines of Clinical Laboratory Standard Institutes (CLSI M100-S24; 2014). A panel of commercial antibiotic discs comprising Gentamicin (GM), Amikacin (AN), Chloramphenicol (C), Imipenem (IPM), Tetracycline (TE), Cefepime (FEP), Sulfamethoxazole/trimethoprim (SXT), Aztreonam (ATM) was used for susceptibility testing. All commercial antibiotic discs were purchased from BBL (Becton Dickinson, USA).
# The predetermined panel of antimicrobial disks was applied firmly on the surface of inoculated Mueller-Hinton agar media by using a disc dispenser device.
# Within 15 min of application of antimicrobial disks, the plates were inverted and incubated aerobically at 35-37° C. for 18-20 h.
# After incubation, inhibition zones were read at the point where no obvious growth is detected by the unaided eye when the plate was held about 30 cm from the eye. The inhibition zone diameters were measured to the nearest millimeter with a ruler. The plates were read from the back of the plate with reflected light against a dark background. Zone diameters of antibiotics in swab inoculated plate were compared with zone diameter in apparatus-inoculated plates.
Compound,Testing for zone of inhibition; Method of Inoculation: Swabbing,"Testing for zone of inhibition; Method of Inoculation: Apparatus, Double actuation","Testing for zone of inhibition; Method of Inoculation: Apparatus, Single actuation"
"NCC[C@H](O)C(=O)N[C@@H]1C[C@H](N)[C@@H](O[C@H]2O[C@H](CN)[C@@H](O)[C@H](O)[C@H]2O)[C@H](O)[C@H]1O[C@H]1O[C@H](CO)[C@@H](O)[C@H](N)[C@H]1O [AN, Amikacin]",22 mm,23 mm,26 mm
"C[C@H]1[C@H](NC(=O)/C(=N\OC(C)(C)C(=O)O)c2csc(N)n2)C(=O)N1S(=O)(=O)O [ATM, Aztreonam]",NZI,NZI,NZI
"O=C(N[C@H](CO)[C@H](O)c1ccc([N+](=O)[O-])cc1)C(Cl)Cl [C, Chloramphenicol]",21 mm,22 mm,22 mm
"CO/N=C(\C(=O)N[C@@H]1C(=O)N2C(C(=O)[O-])=C(C[N+]3(C)CCCC3)CS[C@H]12)c1csc(N)n1 [FEP, Cefepime]",NZI,NZI,NZI
"C[C@@H](O)[C@H]1C(=O)N2C(C(=O)O)=C(SCCN=CN)C[C@H]12 [IPM, Imipenem]",38 mm,38 mm,38 mm
"CN(C)[C@@H]1C(O)=C(C(N)=O)C(=O)[C@@]2(O)C(O)=C3C(=O)c4c(O)cccc4[C@@](C)(O)[C@H]3C[C@@H]12 [TE, Tetracycline]",22 mm,24 mm,25 mm
Gentamicin [GM],21 mm,22 mm,22 mm
